Measured values as given in US6831199B1, “Pyrimidine compounds and derivatives thereof” (G. D. Searle & Co., priority 1995, dated 2004).
Structures can show the parent of a compound that is named as a salt.

What was measured:
[1] = target: T1, Human fibrinogen receptor (αIIbβ3) (Homo sapiens, UniProt P05106+P08514); test: Purified IIb/IIIa receptor assay (solid phase receptor assay, competition with biotinylated vitronectin); format: binding; conditions: read-out: IIb/IIIa IC50
T1 construct: Human fibrinogen receptor (αIIbβ3) was purified from outdated platelets; from tissue; host or cells: outdated human platelets
How it was run: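 Purified platelet αIIbβ3 coated overnight at 4 °C in TBS with 1.0 mM Ca/Mg/Mn, pH 7.4, then BSA-blocked. Compounds (top 1.0×10^−4 M) competed with 1 nM biotinylated vitronectin for 2 h at room temperature. Bound label detected by HRP anti-biotin, A450; values normalized to no-competitor controls, four-parameter fit.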

[2] = target: T2, Human vitronectin receptor (αvβ3) (Homo sapiens, UniProt P05106+P06756); test: Vitronectin adhesion assay (solid phase receptor assay, competition with biotinylated vitronectin); format: binding; conditions: read-out: AvB3 IC50
T2 construct: Human vitronectin receptor (αvβ3) was purified from human placenta; from tissue; host or cells: human placenta
How it was run: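 Purified human αvβ3 coated overnight at 4 °C in TBS with 1.0 mM Ca++, Mg++, Mn++, pH 7.4; compounds (top final 1.0×10^−4 M) competed with 1 nM biotinylated vitronectin for 2 h at room temperature. Bound ligand detected by HRP anti-biotin/OPD at A450; values normalized to no-competitor controls, four-parameter curve fit.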

| IC50 [1] [nM] | IC50 [2] [nM] | Structure (SMILES) |
| --- | --- | --- |
| 18700 | 6400 | CCOC(=O)CC(NC(=O)CNC(=O)c1cccc(NC(=O)Nc2ccccc2)c1)c1cccnc1 (stereo not drawn) [Example 107, ethyl β-[[2-[[[3-[[(phenylamino]carbonyl]amino]phenyl]carbonyl]amino]acetyl]amino]-pyridine-3-propanoate] |
| 23.6 | 0.35 | N=C(N)Nc1cccc(C(=O)NCC(=O)NC(CC(=O)O)c2cncnc2)c1 (stereo not drawn) [Example 243, β-[[2-[[[3-[(aminoiminomethyl)amino]phenyl]carbonyl]amino]acetyl]amino][pyrimidine-5-propanoic acid, trifluoroacetate salt] |
| 3170 | 229 | N=C(Nc1cccc(C(=O)NCC(=O)NC(CC(=O)O)c2cc(Cl)cc(Cl)c2)c1)N1CCCCC1 (stereo not drawn) [Example 285, 3,5-dichloro-β-[[2-[[[3-[[imino(1-piperidinyl)methyl]amino]phenyl]carbonyl]amino]acetyl]amino]benzenepropanoic acid, trifluoroacetate salt] |
| 7260 | 0.84 | CC1(C)CN=C(Nc2cccc(C(=O)NCC(=O)NC(CC(=O)O)c3cc(Cl)cc(Cl)c3O)c2)NC1 (racemic) [Example 362, (±)3,5-dichloro-2-hydroxy-β-[[2-[[[3-[(1,4,5,6-tetrahydro-5,5-dimethylpyrimidin-2-yl)amino]phenyl]carbonyl]amino]acetyl]amino]benzenepropanoic acid, trifluoroacetate salt] |
| 9800 | 124 | N=C(N)Nc1cccc(C(=O)NC2CCN(CCC(=O)O)C2=O)c1 (racemic) [Example 42, (±)3-[[[3-[(aminoiminomethyl)amino]phenyl]carbonyl]amino]-2-oxopyrrolidine-1-propanoic acid, trifluoroacetate salt] |
| 17200 | 557 | CCOC(=O)NC(=N)Nc1cccc(C(=O)NCC(=O)NC(CC(=O)O)c2cc(Cl)cc(Cl)c2)c1 (stereo not drawn) [Example 241, 3,5-dichloro-β-[[2-[[[3-[[[(ethoxycarbonyl)amino]iminomethyl]amino]phenyl]carbonyl]amino]acetyl]amino]benzenepropanoic acid, trifluoroacetate salt, monohydrate] |
| > 100000 | 9730 | CCOC(=O)CC(NC(=O)CNC(=O)c1cccc(NC(=N)N)c1)c1ccoc1 (racemic) [Example 51, (±)ethyl β-[[2-[[[3-[(aminoiminomethyl)amino]phenyl]carbonyl]amino]acetyl]amino]furan-3-propanoate, trifluoroacetate salt] |
| 29.9 | 0.54 | N=C(N)Nc1cccc(C(=O)NCC(=O)NC(CC(=O)O)c2cncc(Br)c2)c1 (racemic) [Example 235, (±)β-[[2-[[[3-[(aminoiminomethyl)amino]phenyl]carbonyl]amino]acetyl]amino]-5-bromopyridine-3-propanoic acid, bis(trifluoroacetate)salt, monohydrate] |
| 140 | 0.83 | N=C(N)Nc1cccc(C(=O)NCC(=O)NC(CC(=O)O)c2cc(F)cc(Br)c2)c1 (racemic) [Example 209, (±)β-[[2-[[[3-[(aminoiminomethyl)amino]phenyl]carbonyl]amino]acetyl]amino]-3-bromo-5-fluorobenzenepropanoic acid, trifluoroacetate salt] |
| 1060 | 8.62 | N=C(N)Nc1cccc(C(=O)NCC(=O)NC(CC(=O)O)CC(=O)Nc2cc(Cl)cc(Cl)c2)c1 (stereo not shown) [Example 288, 3-[[2-[[[3-[(aminoiminomethyl)amino]phenyl]carbonyl]amino]acetyl]amino)-5-[(3,5-dichlorophenyl)amino]-5-oxopentanoic acid, trifluoroacetate salt] |
| > 100000 | 2720 | CCOC(=O)CC(NC(=O)CNC(=O)c1cccc(N/C(=N\C#N)NCc2cccnc2)c1)c1ccccc1 (stereo not drawn) [Example 145, ethyl β-[[2-[[[3-[[(cyanoimino)[3-pyridinylmethyl)amino]methyl]amino]phenyl]carbonyl]amino]acetyl]amino]benzenepropanoate, trifluoroacetate salt] |
| 1950 | 0.57 | O=C(O)CC(NC(=O)CNC(=O)c1cccc(NC2=NCCCN2)c1)c1cc(Cl)cc(Cl)c1O (racemic) [Example 237, (±)3,5-dichloro-2-hydroxy-β-[[2-[[[3-[(1,4,5,6-tetrahydropyrimidin-2-yl)amino]phenyl]carbonyl]amino]acetyl]amino]benzenepropanoic acid, trifluoroacetate salt, monohydrate] |
| 574 | 2.18 | CCC(CC(=O)O)NC(=O)CNC(=O)c1cccc(NC(=N)N)c1 (stereo not shown) [Example 264, 3-[[2-[[[3-[(aminoiminomethyl)amino]phenyl]carbonyl]amino]acetyl]amino]pentanoic acid, trifluoroacetate salt] |
| 4660 | 49.2 | COc1ccc(Br)cc1C(CC(=O)O)NC(=O)CNC(=O)c1cccc(NC(=N)N)c1 (stereo not drawn) [Example 257, β-[[2-[[[3-[(aminoiminomethyl)amino]phenyl]carbonyl]amino]acetyl]amino]-5-bromo-2-methoxybenzenepropanoic acid, trifluoroacetate salt] |
| 646 | 0.92 | O=C(O)CC(NC(=O)CNC(=O)c1cccc(NC2=NCCN2)c1)c1cc(Cl)cc(Cl)c1O (racemic) [Example 238, trifluoroacetate salt, monohydrate] |
| > 100000 | 50700 | CCN/C(=N\C#N)Nc1cccc(C(=O)NCC(=O)NC(CC(=O)OCC)c2ccccc2)c1 (stereo not drawn) [Example 135, ethyl β-[[2-[[[3-[[(cyanoimino)(ethylamino)methyl]amino]phenyl]carbonyl]amino]acetyl]amino]benzenepropanoate] |
| 258 | 1.58 | N=C(N)Nc1cccc(C(=O)NCC(=O)NC(CC(=O)O)c2cccc(Cl)c2)c1 (racemic) [Example 183, (±)β-[[2-[[[3-[(aminoiminomethyl)amino]phenyl]carbonyl]amino]acetyl]amino]-3-chlorobenzenepropanoic acid, trifluoroacetate salt] |
| 98 | 1.09 | COc1cc(OC)cc(C(CC(=O)O)NC(=O)CNC(=O)c2cccc(NC(=N)N)c2)c1 (racemic) [Example 195, (±)β-[[2-[[[3-[(aminoiminomethyl)amino]phenyl]carbonyl]amino]acetyl]amino]-3,5-dimethoxybenzenepropanoic acid, trifluoroacetate salt] |
| 22800 | 132 | Cc1ccc(C)c(C(CC(=O)O)NC(=O)CNC(=O)c2cccc(NC(=N)N)c2)c1 (racemic) [Example 181, (±)β-[[2-[[[3-[(aminoiminomethyl)amino]phenyl]carbonyl]amino]acetyl]amino]-2,5-dimethylbenzenepropanoic acid, trifluoroacetate salt] |
| 8470 | 16.9 | N=C(N)Nc1cccc(C(=O)NCC(=O)NC(CC(=O)O)c2c(F)c(F)cc(F)c2F)c1 (racemic) [Example 365, (±)β-[[2-[[[3-[(aminoiminomethyl)amino]phenyl]carbonyl]amino]acetyl]amino]-2,3,5,6-tetrafluorobenzenepropanoic acid, trifluoroacetate salt] |
| 21200 | 31.1 | CC(CC(=O)O)NC(=O)CNC(=O)c1cccc(NC(=O)NCc2cc(Cl)cc(Cl)c2)c1 (stereo not shown) [Example 274, 3-[[2-[[[3-[[[[(3,5-dichlorophenyl)methyl]amino]carbonyl]amino]phenyl]carbonyl]amino]acetyl]amino]butanoic acid] |
| 45900 | 13000 | CCOC(=O)/N=C(/NC(=O)OCC)Nc1cccc(C(=O)NCC(=O)NC(CC(=O)O)c2cc(Cl)cc(Cl)c2)c1 (stereo not drawn) [Example 166, 3,5-dichloro-β-[[2-[[[3-[[[(ethoxycarbonyl)amino][(ethoxycarbonyl)imino]methyl]amino]phenyl]carbonyl]amino]acetyl]amino]benzenepropanoic acid] |
| 621 | 0.9 | N=C(N)Nc1cc(C(=O)O)cc(C(=O)NCC(=O)NC(CC(=O)O)c2cccnc2)c1 (stereo not drawn) [Example 289, β-[[2-[[[3-[(aminoiminomethyl)amino]-5-carboxyphenyl]carbonyl]amino]acetyl]amino]pyridine-3-propanoic acid, bis(trifluoroacetate)salt] |
| 3150 | 227 | CCOC(=O)CC(NC(=O)CNC(=O)c1cccc(NC(=N)N)c1)c1ccc2c(c1)OCO2 (racemic) [Example 5, (±)ethyl β-[[2-[[[3-[(aminoiminomethyl)amino]phenyl]carbonyl]amino]acetyl]amino]-1,3-benzodioxole-5-propanoate, trifluoroacetate salt] |
| 83.2 | 0.35 | C#C[C@H](CC(=O)O)NC(=O)CNC(=O)c1cccc(N/C(N)=N\C(N)=O)c1 [Example 171, 3S-[[2-[[[3-[[amino[(aminocarbonyl)imino]methyl]amino]phenyl]carbonyl]amino]acetyl]amino]-4-pentynoic acid, trifluoroacetate salt, hydrate] |
| 1250 | 0.53 | O=C(O)CC(NC(=O)CNC(=O)c1cccc(NC2=NCCCN2)c1)c1cc(Cl)cc(Br)c1O (racemic) [Example 236, (±)3-bromo-5-chloro-2-hydroxy-β-[[2-[[[3-[(1,4,5,6-tetrahydropyrimidin-2-yl)amino]phenyl]carbonyl]amino]acetyl]amino]benzenepropanoic acid, trifluoroacetate salt, monohydrate] |
